These results are taken from US9856270B2, “Dolutegravir salts” (Ratiopharm GmbH, priority 2013, dated 2018).

Structures can show the parent of a compound that is named as a salt.

Holding throughout (assay type): physicochemical
Series [1] is described as follows: Storage stability of solid state forms (polymorphic conversion, XRPD).
Series [2] in a line: Determination of the dissolution, 1st experiment (approx. 350 mg in 5 ml solvent, 37° C., approx. 500 rpm, HPLC/UV). The settings on record: for concentration: 37° C. On the procedure: (§1) In the following examples, anhydrous Dolutegravir Na as disclosed in WO2010068253 is employed.
Approx. 350 mg test substance was weighed into a glass vial, followed by addition of 5 ml solvent. A stirring bar was added, the vial was fixed in a water bath at 37° C. and the suspension was stirred with approx. 500 rpm. After 1 h and 24 h, samples were withdrawn, filtered through a 0.2 μm disposable filter, 50 μl of the clear filtrate were diluted with 950 μl DMSO and 2 μl thereof were analyzed by HPLC/UV.
(§2) HPLC/UV-Method for Quantification of Dolutegravir • Instrument: Agilent 1200 (G3324) • Method: DOLUTEGRAVIR-SOL-G3324.M • Column: YMC Triart C18, 100*3.0 mm, 3.0μ • Flow: 0.6 ml/min. • Temperature: 40.0° C. • Eluent • A: acetonitrile • B: 0.2% formic acid+0.1% Heptafluorobutyric acid (HFBA)
(§3) A calibration curve was established by linear regression analysis of concentration/peak area data pairs obtained by twofold analysis of a set of calibration solutions containing dolutegravir at concentrations between 10 μg/ml and 1,000 μg/ml. In case that the peak area of dolutegravir in an analyzed sample exceeded the upper limit of the calibration range, the sample was diluted and re-analyzed.

The nature of series [3]: Dissolution profile of tablet formulations (900 ml 0.1 N HCl, paddle, 100 rpm, 37° C.). The note with it: tablets, FIG. 24. Here is the method:
The dissolution profile of the above potassium salt formulation in 900 ml of 0.1 N HCl, paddle (no sinker) at 100 rpm, 37° C. was tested. An aqueous solution comprising Pharmacoat 603 was prepared. The active, Granulac 200, SDS, Avicel PH 101 and Ac-Di-Sol were granulated with the before prepared solution. The obtained granules were sieved through 1650 μm mesh size and subsequently dried at 40° C. After sieving the dried granules through 630 μm mesh size, Prosolv and Ac-Di-Sol were added. The mixture was blended for 10 minutes in a Turbula […] tumble mixer. After addition of Magnesium stearate, blending was continued for 3 minutes. Finally, the blend was compressed into tablets on an eccentric press Ek0 with a 9 mm tablet punch. The dissolution profile of the above sodium salt formulation in 900 ml of 0.1 N HCl, paddle (no sinker) at 100 rpm, 37° C. was tested.

Series [4] in a line: Determination of the dissolution, 2nd experiment (approx. 210 mg in 3 ml solvent, 37° C., approx. 250 rpm, HPLC/UV). Here is the method: as §1
Approx. 210 mg test substance was weighed into a glass vial, followed by addition of 3 ml solvent. A stirring bar was added, the vial was fixed in a water bath at 37° C. and the suspension was stirred with approx. 250 rpm. After 5, 15 and 60 min, samples were withdrawn, filtered through a 0.2 μm disposable filter, 50 μl of the clear filtrate were diluted with 950 μl DMSO and 2 μl thereof were analyzed by HPLC/UV.
as §2, §3

Setting [5] is: solvent 50 mM KH2PO4, pH 6.8, 5 min, potassium salt.
The mark [6] stands for this setting: solvent 50 mM KH2PO4, pH 6.8, 15 min, potassium salt.
The mark [7] stands for this setting: solvent 50 mM KH2PO4, pH 6.8, 60 min, potassium salt.
Setting [8] is: solvent 0.1 N HCl, 5 min, potassium salt.
Setting [9] is: solvent 0.1 N HCl, 15 min, potassium salt.
Setting [10] is: solvent 0.1 N HCl, 60 min, potassium salt.
The mark [11] stands for this setting: solvent demineralized water, 5 min, potassium salt.
The mark [12] stands for this setting: solvent demineralized water, 15 min, potassium salt.
Where [13] appears, read: solvent demineralized water, 60 min, potassium salt.

Consider `C[C@@H]1CCO[C@H]2Cn3cc(C(=O)NCc4ccc(F)cc4F)c(=O)c(O)c3C(=O)N12` [Dolutegravir potassium form IV, Dolutegravir potassium salt], for which the “stable upon storage (time)” value in series [1] (45° C./75% relative humidity) is “at least 8 weeks”.
In the case of `C[C@@H]1CCO[C@H]2Cn3cc(C(=O)NCc4ccc(F)cc4F)c(=O)c(O)c3C(=O)N12` [Dolutegravir potassium salt], the “dissolution compared to the sodium salt” value in series [2] (under certain conditions as depicted in Example 9) is recorded as “improved dissolution”. Besides, in series [3], the “dissolution rate of a pharmaceutical composition compared to the sodium salt” value is “faster and/or higher dissolution rate”.
On to `C[C@@H]1CCO[C@H]2Cn3cc(C(=O)NCc4ccc(F)cc4F)c(=O)c(O)c3C(=O)N12` [Dolutegravir-K (Form VI), Dolutegravir potassium salt], for which the concentration in series [2] (solvent 20 mM Sodium acetate (NaAc) pH 4.5, 1 h, potassium salt) came out at 21770 µg/mL; in series [2] (solvent 20 mM Sodium acetate (NaAc) pH 4.5, 24 h, potassium salt), 16930 µg/mL; in series [2] (solvent 50 mM KH2PO4 pH 6.8, 1 h, potassium salt), 32580 µg/mL; in series [2] (solvent 50 mM KH2PO4 pH 6.8, 24 h, potassium salt) it was 33440 µg/mL; in series [2] (solvent 0.1M HCl pH1.2, 1 h, potassium salt) it was 20350 µg/mL; in series [2] (solvent 0.1M HCl pH1.2, 24 h, potassium salt), 20270 µg/mL.
For the molecule `C[C@@H]1CCO[C@H]2Cn3cc(C(=O)NCc4ccc(F)cc4F)c(=O)c(O)c3C(=O)N12` [Dolutegravir-K (Form VII), Dolutegravir potassium salt], in series [1] (25° C. and 60% RH, 30° C. and 65% RH and 40° C. and 75% RH), the “stable under storage conditions (time)” value is on record as “at least 8 weeks”. The concentration in series [4] (setting [5]) came to 22000 µg/mL; in series [4] (setting [6]), 23900 µg/mL; in series [4] (setting [7]), 23300 µg/mL; in series [4] (setting [8]), 80 µg/mL; in series [4] (setting [9]), 23780 µg/mL; in series [4] (setting [10]), 25930 µg/mL. Further, the concentration worked out at 39500 µg/mL in series [4] (setting [11]), 44000 µg/mL in series [4] (setting [12]) and 44100 µg/mL in series [4] (setting [13]).
As for `C[C@@H]1CCO[C@H]2Cn3cc(C(=O)NCc4ccc(F)cc4F)c(=O)c(O)c3C(=O)N12` [Dolutegravir-K (amorphous), Dolutegravir potassium salt], the “stable under storage condition (time)” value in series [1] (40° C./75% RH) was “at least 12 weeks”. In addition, the concentration turned out to be 39100 µg/mL in series [4] (setting [5]); 40900 µg/mL in series [4] (setting [6]); 60100 µg/mL in series [4] (setting [7]); 300 µg/mL in series [4] (setting [8]); 21260 µg/mL in series [4] (setting [9]); 15400 µg/mL in series [4] (setting [10]). For the same molecule, the concentration in series [4] (setting [11]) was found to be 55600 µg/mL; in series [4] (setting [12]) it was 55100 µg/mL; in series [4] (setting [13]), 62300 µg/mL.
`C[C@@H]1CCO[C@H]2Cn3cc(C(=O)NCc4ccc(F)cc4F)c(=O)c(O)c3C(=O)N12` [Dolutegravir-Na, reference compound]: the concentration in series [2] (solvent 20 mM Sodium acetate (NaAc) pH 4.5, 1 h) amounted to 595 µg/mL; in series [2] (solvent 20 mM Sodium acetate (NaAc) pH 4.5, 24 h), 634 µg/mL; in series [2] (solvent 50 mM KH2PO4 pH 6.8, 1 h), 894 µg/mL; in series [2] (solvent 50 mM KH2PO4 pH 6.8, 24 h), 918 µg/mL; in series [2] (solvent 0.1M HCl pH1.2, 1 h), 84 µg/mL; in series [2] (solvent 0.1M HCl pH1.2, 24 h), 412 µg/mL. Further, the concentration in series [4] (solvent 50 mM KH2PO4, pH 6.8, 5 min) was determined as 270 µg/mL; in series [4] (solvent 50 mM KH2PO4, pH 6.8, 15 min) it was 1190 µg/mL; in series [4] (solvent 50 mM KH2PO4, pH 6.8, 60 min), 1240 µg/mL; in series [4] (solvent 0.1 N HCl, 5 min, listed as Dolutegravir-Na (anhydrous)), 330 µg/mL; in series [4] (solvent 0.1 N HCl, 15 min, listed as Dolutegravir-Na (anhydrous)), 420 µg/mL; in series [4] (solvent 0.1 N HCl, 60 min, listed as Dolutegravir-Na (anhydrous)), 400 µg/mL. Also, the concentration in series [4] (solvent demineralized water, 5 min) turned out to be 3300 µg/mL; in series [4] (solvent demineralized water, 15 min) it was 3430 µg/mL; in series [4] (solvent demineralized water, 60 min), 3500 µg/mL.
